Publication PMC11219735, “Fluorescence lifetime multiplexing with fluorogen activating protein FAST variants” (Communications Biology, 2024)

Key:
Assay in all cases: spectrofluorometric titration of purified protein
Format in all cases: binding
[1] = biological target: T1, FAST-P68K (Fluorescence-Activating and Absorption-Shifting Tag) (Halorhodospira halophila, UniProt P16113, P68K/C69G/Y94W/T95M/F96I/D97P/Y98T/Q99S/M100R)
T1 construct: gene pyp

[2] = biological target: T2, FAST-R52K (Fluorescence-Activating and Absorption-Shifting Tag) (Halorhodospira halophila, UniProt P16113, R52K/C69G/Y94W/T95M/F96I/D97P/Y98T/Q99S/M100R)
T2 construct: gene pyp
T2 sequence (P16113 whole entry R52K/C69G/Y94W/T95M/F96I/D97P/Y98T/Q99S/M100R): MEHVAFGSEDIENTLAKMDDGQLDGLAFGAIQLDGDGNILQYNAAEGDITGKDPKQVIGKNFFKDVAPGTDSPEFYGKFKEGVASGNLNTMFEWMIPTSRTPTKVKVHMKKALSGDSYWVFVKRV

[3] = biological target: T3, FAST-P68T (Fluorescence-Activating and Absorption-Shifting Tag) (Halorhodospira halophila, UniProt P16113, P68T/C69G/Y94W/T95M/F96I/D97P/Y98T/Q99S/M100R)
T3 construct: gene pyp
T3 sequence (P16113 whole entry P68T/C69G/Y94W/T95M/F96I/D97P/Y98T/Q99S/M100R): as the sequence (P16113 whole entry R52K/C69G/Y94W/T95M/F96I/D97P/Y98T/Q99S/M100R) above, with K52R, P68T counted along it

[4] = biological target: T4, FAST-F62L (Fluorescence-Activating and Absorption-Shifting Tag) (Halorhodospira halophila, UniProt P16113, F62L/C69G/Y94W/T95M/F96I/D97P/Y98T/Q99S/M100R)
T4 construct: gene pyp
T4 sequence (P16113 whole entry F62L/C69G/Y94W/T95M/F96I/D97P/Y98T/Q99S/M100R): as the sequence (P16113 whole entry R52K/C69G/Y94W/T95M/F96I/D97P/Y98T/Q99S/M100R) above, with K52R, F62L counted along it

T1 sequence (P16113 whole entry P68K/C69G/Y94W/T95M/F96I/D97P/Y98T/Q99S/M100R): as the sequence (P16113 whole entry R52K/C69G/Y94W/T95M/F96I/D97P/Y98T/Q99S/M100R) above, with K52R, P68K counted along it

SMILES: COc1cc(/C=C2\N=C(C(F)(F)F)N(C)C2=O)c(OC)cc1O [25DOM-HBI-2T, (Z)-5-(4-hydroxy-2,5-dimethoxybenzylidene)-3-methyl-2-(trifluoromethyl)-3,5-dihydro-4H-imidazol-4-one]
- Kd [1]: 340 nM
- Kd [2]: 440 nM

SMILES: Cc1cc(/C=C2\SC(=S)NC2=O)c(C)cc1O [HBR-2,5-DM]
- Kd [1]: 84 nM
- Kd [2]: 46 nM
- Kd [3]: 90 nM

SMILES: COc1cc(/C=C2\SC(=S)NC2=O)c(OC)cc1O [HBR-DOM2, (Z)-5-(4-hydroxy-2,5-dimethoxybenzylidene)-2-thioxothiazolidin-4-ones]
- Kd [1]: 30 nM
- Kd [2]: 35 nM
- Kd [4]: 36 nM
